Laboratory results as given in patent publication US9255094B2, “Pyrido[4,3-B]indoles and methods of use” (Medivation Technologies, Inc., priority 2009, dated 2016).

Key:
[1] = target: T1, rat adrenergic α1B receptor (Rattus norvegicus, UniProt P15823); assay: Adrenergic α1B radioligand binding assay ([3H]Prozosin); conditions: compound at 0.1 μM; 0.25 nM [3H]Prozosin; Wistar Rat liver; read-out: Percent Inhibition of ligand binding, Adrenergic (0.1 μM) a1B
T1 construct: from tissue; host or cells: Wistar Rat liver
T1 sequence (P15823 1-515): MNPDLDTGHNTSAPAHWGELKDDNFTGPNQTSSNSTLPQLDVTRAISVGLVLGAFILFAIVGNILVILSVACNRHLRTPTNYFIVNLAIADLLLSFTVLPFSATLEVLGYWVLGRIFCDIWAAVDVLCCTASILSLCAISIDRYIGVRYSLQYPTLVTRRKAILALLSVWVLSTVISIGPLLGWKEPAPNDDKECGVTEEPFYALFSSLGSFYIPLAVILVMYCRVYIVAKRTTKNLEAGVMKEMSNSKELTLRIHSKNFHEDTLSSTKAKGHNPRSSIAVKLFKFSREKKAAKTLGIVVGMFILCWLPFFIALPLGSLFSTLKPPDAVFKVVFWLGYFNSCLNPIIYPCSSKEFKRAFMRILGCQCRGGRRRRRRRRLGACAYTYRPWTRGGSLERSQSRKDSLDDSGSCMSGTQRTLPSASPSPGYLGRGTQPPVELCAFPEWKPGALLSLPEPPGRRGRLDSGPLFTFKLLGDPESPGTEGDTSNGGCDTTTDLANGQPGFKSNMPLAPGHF
Procedure: To evaluate in radioligand binding assays the activity of compounds of the invention, rat adrenergic α1B receptor obtained from Wistar Rat liver (Garcia-S'ainz, J. A. et al., Biochem. Biophys. Res. Commun. 186:760, 1992; Michel A. D. et al., Br. J. Pharmacol. 98:883, 1989) in a modified Tris-HCl buffer (50 mM Tris-HCl buffer, pH 7.4, 0.5 mM EDTA) is used. Compounds of the invention are incubated with 0.25 nM [^3H]Prozosin for 60 min at 25° C. Non-specific binding is estimated in the presence of 10 μM phentolamine. Receptor proteins are filtered and washed, the filters are then counted to determine [^3H]Prozosin specifically bound. Compounds are screened at 1 μM or lower, using 1% DMSO as vehicle. Compounds of the invention are tested in this biochemical assay and percent inhibition of specific binding is determined.

[2] = target: T2, human recombinant histamine H2 receptor (Homo sapiens, UniProt P25021); assay: Histamine H2 radioligand binding assay ([125I]Aminopotentidine); conditions: compound at 1 μM; 0.1 nM [125I]Aminopotentidine; receptor expressed in CHO-K1 cells
T2 construct: expressed in transfected cells; host or cells: Chinese hamster ovary (CHO) K1 cells
Procedure: To evaluate in radioligand binding assays the activity of compounds of the invention, human recombinant histamine H2 receptor expressed in Chinese hamster ovary (CHO) K1 cells (Ruat, M., Proc. Natl. Acad. Sci. USA. 87(5):1658, 1990) in a 50 mM Phosphate buffer, pH 7.4 was used. Compounds of the invention were incubated with 0.1 nM [^125I]Aminopotentidine for 120 min at 25° C. Non-specific binding was estimated in the presence of 3 μM Tiotidine. Receptor proteins were filtered and washed, the filters were then counted to determine [^125I]Aminopotentidine specifically bound. Compounds were screened at 1 μM or lower, using 1% DMSO as vehicle. Biochemical assay results are presented as the percent inhibition of specific binding in Table 2.

[3] = target: T3, human recombinant serotonin (5-Hydroxytryptamine) 5-HT2C receptor (Homo sapiens, UniProt P28335); assay: Serotonin 5-HT2C radioligand binding assay ([3H]Mesulergine); conditions: 1 nM [3H]Mesulergine, CHO-K1 cells; for inhibition at 1 µM: compound at 1 μM, read-out: Percent Inhibition of ligand binding, Serotonin (1 μM) 5-HT2C; for inhibition at 0.1 µM: compound at 0.1 μM, read-out: Percent Inhibition of ligand binding, Serotonin (0.1 μM) 5-HT2C
T3 construct: expressed in transfected cells; host or cells: Chinese hamster ovary (CHO-K1) cells
T3 sequence (P28335 33-458): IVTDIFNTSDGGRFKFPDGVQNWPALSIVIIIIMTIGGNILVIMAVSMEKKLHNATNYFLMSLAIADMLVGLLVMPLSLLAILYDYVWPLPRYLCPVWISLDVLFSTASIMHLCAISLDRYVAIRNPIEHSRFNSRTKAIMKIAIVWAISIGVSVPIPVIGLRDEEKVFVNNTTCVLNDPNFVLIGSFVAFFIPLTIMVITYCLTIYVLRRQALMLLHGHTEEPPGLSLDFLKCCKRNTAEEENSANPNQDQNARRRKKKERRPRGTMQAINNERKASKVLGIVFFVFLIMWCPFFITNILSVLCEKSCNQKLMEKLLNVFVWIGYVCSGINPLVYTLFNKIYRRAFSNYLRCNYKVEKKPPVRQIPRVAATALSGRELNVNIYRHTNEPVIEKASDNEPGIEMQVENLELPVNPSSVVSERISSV
Procedure: Compounds of the invention were incubated with 1 nM [^3H]Mesulergine for 60 min at 25° C. Non-specific binding was estimated in the presence of 1 μM Mianserin. Receptor proteins were filtered and washed, the filters were then counted to determine [^3H]Mesulergine specifically bound. Compounds were screened at 1 μM or lower, using 1% DMSO as vehicle. Biochemical assay results are presented as the percent inhibition of specific binding in Table 4.

[4] = target: human recombinant serotonin (5-Hydroxytryptamine) 5-HT7 receptor (Homo sapiens, UniProt P34969); assay: Serotonin 5-HT7 radioligand binding assay ([3H]LSD); conditions: 5.5 nM [3H]LSD, CHO cells; for inhibition at 1 µM: compound at 1 μM, read-out: Percent Inhibition of ligand binding, Serotonin (1 μM) 5-HT7; for inhibition at 0.1 µM: compound at 0.1 μM, read-out: Percent Inhibition of ligand binding, Serotonin (0.1 μM) 5-HT7
Procedure: Compounds of invention were incubated with 5.5 nM [^3H] Lysergic acid diethylamide (LSD) for 2 h at 25° C. […] Receptor proteins were filtered and washed, the filters were then counted to determine [^3H]LSD specifically bound. Compounds were screened at 1 μM or lower, using 1% DMSO as vehicle. Biochemical assay results are presented as the percent inhibition of specific binding in Table 4.

[5] = target: T4, human recombinant serotonin (5-Hydroxytryptamine) 5-HT5A receptor (Homo sapiens, UniProt P47898); assay: Serotonin 5-HT5A radioligand binding assay ([3H]LSD); conditions: compound at 0.1 μM; 1.7 nM [3H]LSD; CHO-K1 cells; read-out: Percent Inhibition of ligand binding, Serotonin (0.1 μM) 5-HT5A
T4 construct: expressed in transfected cells; host or cells: Chinese hamster ovary (CHO-K1) cells
Procedure: Compounds of the invention were incubated with 1.7 nM [^3H]Lysergic acid diethylamide (LSD) for 60 min at 37° C. […] Receptor proteins were filtered and washed, the filters were then counted to determine [^3H]LSD specifically bound. Compounds were screened at 1 μM or lower, using 1% DMSO as vehicle. Compounds of the invention were tested in this biochemical assay and percent inhibition of specific binding was determined. Biochemical assay results are presented as the percent inhibition of specific binding in Table 4.

human recombinant serotonin (5-Hydroxytryptamine) 5-HT7 receptor, sequence (P34969 whole entry): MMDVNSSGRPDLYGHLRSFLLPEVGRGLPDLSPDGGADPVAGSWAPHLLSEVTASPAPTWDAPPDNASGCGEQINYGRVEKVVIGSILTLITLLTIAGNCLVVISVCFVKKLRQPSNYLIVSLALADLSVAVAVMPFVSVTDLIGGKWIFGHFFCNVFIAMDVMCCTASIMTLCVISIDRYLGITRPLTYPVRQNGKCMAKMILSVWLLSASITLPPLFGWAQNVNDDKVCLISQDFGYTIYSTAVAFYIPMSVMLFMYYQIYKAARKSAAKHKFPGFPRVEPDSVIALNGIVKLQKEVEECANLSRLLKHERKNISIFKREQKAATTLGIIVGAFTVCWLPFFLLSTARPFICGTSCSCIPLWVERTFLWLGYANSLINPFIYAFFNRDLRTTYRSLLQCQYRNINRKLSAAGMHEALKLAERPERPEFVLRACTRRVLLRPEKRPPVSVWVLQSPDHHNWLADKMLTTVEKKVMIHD
T2 sequence (P25021 whole entry): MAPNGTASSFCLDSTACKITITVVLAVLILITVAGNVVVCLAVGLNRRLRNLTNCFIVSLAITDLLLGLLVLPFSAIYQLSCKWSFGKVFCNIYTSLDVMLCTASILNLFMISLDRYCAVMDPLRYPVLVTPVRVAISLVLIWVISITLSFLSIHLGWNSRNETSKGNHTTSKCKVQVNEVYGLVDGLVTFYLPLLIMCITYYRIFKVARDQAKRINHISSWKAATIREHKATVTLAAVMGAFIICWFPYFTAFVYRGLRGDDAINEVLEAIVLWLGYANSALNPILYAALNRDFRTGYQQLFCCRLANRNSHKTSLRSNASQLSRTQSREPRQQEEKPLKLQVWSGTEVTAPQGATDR
T4 sequence (P47898 whole entry): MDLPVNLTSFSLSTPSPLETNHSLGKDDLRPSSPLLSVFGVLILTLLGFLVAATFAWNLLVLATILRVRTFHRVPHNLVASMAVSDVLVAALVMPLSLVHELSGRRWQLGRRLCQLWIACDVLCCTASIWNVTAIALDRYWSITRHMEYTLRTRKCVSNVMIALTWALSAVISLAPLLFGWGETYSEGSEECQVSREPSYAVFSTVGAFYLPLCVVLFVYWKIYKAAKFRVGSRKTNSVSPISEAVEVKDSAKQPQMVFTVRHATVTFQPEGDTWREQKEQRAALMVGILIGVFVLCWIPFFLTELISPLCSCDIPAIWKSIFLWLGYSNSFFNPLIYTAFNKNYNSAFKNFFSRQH

Row | Compound | inhibition at 0.1 µM [1] [%] | inhibition at 1 µM [2] [%] | inhibition at 1 µM [3] [%] | further results
1 | Cc1ccc2c(c1)c1c(n2CC(O)c2ccncc2)CCN(C)C1 (stereo not drawn) [Compound 1-8, 2-(2,8-dimethyl-3,4-dihydro-1H-pyrido[4,3-b]indol-5(2H)-yl)-1-(pyridin-4-yl)ethanol] | 54 |  |  | 
2 | CN1CCc2c(c3cc(Cl)ccc3n2CC(O)c2ccncc2)C1 (stereo not drawn) [Compound 1-11, 2-(8-chloro-2-methyl-3,4-dihydro-1H-pyrido[4,3-b]indol-5(2H)-yl)-1-(pyridin-4-yl)ethanol] | 60 |  |  | 
3 | CN1CCc2c(c3cc(Cl)c(Cl)cc3n2CC(C)(O)c2ccncc2)C1 (stereo not drawn) [Compound 1-17, 1-(7,8-dichloro-2-methyl-3,4-dihydro-1H-pyrido[4,3-b]indol-5(2H)-yl)-2-(pyridin-4-yl)propan-2-ol] | 55 |  |  | 
4 | COc1ccc([C@](C)(O)Cn2c3c(c4cc(C)ccc42)CN(C)CC3)cc1 [Compound 1-20, (S)-1-(2,8-Dimethyl-3,4-dihydro-1H-pyrido[4,3-b]indol-5(2H)-yl)-2-(4-methoxyphenyl)propan-2-ol] | 63 |  |  | 
5 | Cc1ccc2c(c1)c1c(n2CCc2ccc(C)nc2)CCN(CCC#N)C1 [Compound 1-34, 3-(8-methyl-5-(2-(6-methylpyridin-3-yl)ethyl)-3,4-dihydro-1H-pyrido[4,3-b]indol-2(5H)-yl)propanenitrile] |  | 0 | 16 | 
6 | Cc1ccc2c(c1)c1c(n2CC(=O)c2ccccc2)CCN(C)C1 [Compound 1-35, 2-(2,8-dimethyl-3,4-dihydro-1H-pyrido[4,3-b]indol-5(2H)-yl)-1-phenylethanone] |  | 11 | 75 | 
7 | CN1CCc2c(c3cc(Cl)ccc3n2CC(=O)c2ccccc2)C1 [Compound 1-36, 2-(8-chloro-2-methyl-3,4-dihydro-1H-pyrido[4,3-b]indol-5(2H)-yl)-1-phenylethanone] |  | 48 | 94 | 
8 | CN1CCc2c(c3cc(Cl)ccc3n2CC(=O)c2ccc(F)cc2)C1 [Compound 1-37, 2-(8-chloro-2-methyl-3,4-dihydro-1H-pyrido[4,3-b]indol-5(2H)-yl)-1-(4-fluorophenyl)ethanone] |  | 80 | 97 | inhibition at 1 µM [4]: 73%
9 | CN1CCc2c(c3cc(Cl)ccc3n2CC(=O)c2ccc(Cl)cc2)C1 [Compound 1-38, 2-(8-chloro-2-methyl-3,4-dihydro-1H-pyrido[4,3-b]indol-5(2H)-yl)-1-(4-chlorophenyl)ethanone] |  | 56 | 101 | inhibition at 1 µM [4]: 81%
10 | Cc1ccc2c(c1)c1c(n2CC(=O)c2ccc(F)cc2)CCN(C)C1 [Compound 1-39, 2-(2,8-dimethyl-3,4-dihydro-1H-pyrido[4,3-b]indol-5(2H)-yl)-1-(4-fluorophenyl)ethanone] |  | 66 | 104 | inhibition at 1 µM [4]: 95%
11 | Cc1ccc2c(c1)c1c(n2CCc2ccc(CCCN)nc2)CCN(C)C1 [Compound 1-40, 3-(5-(2-(2,8-dimethyl-3,4-dihydro-1H-pyrido[4,3-b]indol-5(2H)-yl)ethyl)pyridin-2-yl)propan-1-amine] |  | 18 | 91 | 
12 | Cc1ccc2c(c1)c1c(n2CCc2ccc(C(F)(F)F)nc2)CCNC1 [Compound 1-41, 8-methyl-5-(2-(6-(trifluoromethyl)pyridin-3-yl)ethyl)-2,3,4,5-tetrahydro-1H-pyrido[4,3-b]indole] |  | 6 | 41 | inhibition at 1 µM [4]: 59%
13 | Cc1ccc2c(c1)c1c(n2CCc2ccc(C)nc2)CCN(CCCO)C1 [Compound 1-42, 3-(8-methyl-5-(2-(6-methylpyridin-3-yl)ethyl)-3,4-dihydro-1H-pyrido[4,3-b]indole-2(5H)-yl)propan-1-ol] |  | 16 | 90 | inhibition at 1 µM [4]: 63%
14 | Cc1ccc2c(c1)c1c(n2CC(C)c2ccncc2)CCN(C)C1 (stereo not drawn) [Compound 1-46, 2,8-dimethyl-5-(2-(pyridin-4-yl)propyl)-2,3,4,5-tetrahydro-1H-pyrido[4,3-b]indole] |  |  |  | inhibition at 0.1 µM [3]: 83%; inhibition at 0.1 µM [4]: 93%
15 | Cc1ccc2c(c1)c1c(n2CC(C)(C)c2ccncc2)CCN(C)C1 [Compound 1-49, 2,8-dimethyl-5-(2-methyl-2-(pyridin-4-yl)propyl)-2,3,4,5-tetrahydro-1H-pyrido[4,3-b]indole] |  |  |  | inhibition at 0.1 µM [3]: 96%; inhibition at 0.1 µM [4]: 95%
16 | CC[C@](O)(Cn1c2c(c3cc(C)ccc31)CN(C)CC2)c1ccc(F)cc1 [Compound 1-60, (R)-1-(2,8-Dimethyl-3,4-dihydro-1H-pyrido[4,3-b]indol-5(2H)-yl)-2-(4-fluorophenyl)butan-2-ol] | -2 |  |  | inhibition at 0.1 µM [3]: 67%; inhibition at 0.1 µM [5]: 26%; inhibition at 0.1 µM [4]: 16%
17 | CCCC[C@](O)(Cn1c2c(c3cc(Cl)ccc31)CN(C)CC2)c1ccc(F)cc1 [Compound 1-61, (R)-1-(8-Chloro-2-methyl-3,4-dihydro-1H-pyrido[4,3-b]indol-5(2H)-yl)-2-(4-fluorophenyl)hexan-2-ol] | 0 |  |  | inhibition at 0.1 µM [3]: 88%; inhibition at 0.1 µM [5]: 5%; inhibition at 0.1 µM [4]: -12%
18 | CC[C@@](O)(Cn1c2c(c3cc(C)ccc31)CN(C)CC2)c1ccncc1 [Compound 1-62, (S)-1-(2,8-Dimethyl-3,4-dihydro-1H-pyrido[4,3-b]indol-5(2H)-yl)-2-(pyridine-4-yl)butan-2-ol] |  |  |  | inhibition at 0.1 µM [3]: 33%; inhibition at 0.1 µM [5]: 6%; inhibition at 0.1 µM [4]: 30%
